Reference: article PMC10247784, “Physiological activation of human and mouse bitter taste receptors by bile acids” (Communications Biology, 2023)
Where “and” joins values, the source holds several entries; their conditions need not be identical. Equal values may be shown once.

Target: T1, human TAS2R1 (Homo sapiens, UniProt Q9NYW7)
T1 construct: expressed in transfected cells; host or cells: HEK293T-Gα16gust44
T1 sequence (Q9NYW7 1-299): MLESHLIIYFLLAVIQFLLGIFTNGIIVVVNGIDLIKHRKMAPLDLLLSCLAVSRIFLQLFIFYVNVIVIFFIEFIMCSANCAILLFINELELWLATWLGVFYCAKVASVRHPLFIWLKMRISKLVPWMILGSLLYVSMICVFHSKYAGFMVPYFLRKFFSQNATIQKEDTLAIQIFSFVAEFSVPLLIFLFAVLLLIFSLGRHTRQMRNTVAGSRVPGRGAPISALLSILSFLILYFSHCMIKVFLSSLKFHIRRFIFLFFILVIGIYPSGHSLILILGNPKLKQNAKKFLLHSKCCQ
Test: Calcium imaging assay (FLIPR), HEK293T-Gα16gust44 cells transfected with human TAS2R1
Format: cell-based
Method: This set of bile acids was chosen because of their commercial availability in high purities, their diversity within the class of bile acids and their previous detection and quantitation in human blood. Stock solutions were prepared in DMSO.
As basal growth medium for the HEK293T-Gα16gust44 cell line[17],[59] served Dulbecco’s modified eagle medium (DMEM) (Thermo Fisher Scientific, Darmstadt, Germany) supplemented with 10 % fetal bovine serum (Sigma-Aldrich, Steinheim, Germany), 2 mM L-glutamine (Sigma-Aldrich, Steinheim, Germany), 100 units/ml penicillin (Sigma Aldrich, Steinheim, Germany) and 100 µg/ml streptomycin (Sigma Aldrich, Steinheim, Germany). Growth conditions were 37 °C, 5 % CO2 and saturated air-humidity[60].
HEK293T-Gα16gust44 cells were seeded on poly-D-lysine (10 µg/ml) coated 96-well plates to reach a confluence of 40-60 % the next day. For transient transfection 150 ng of plasmid DNA containing the receptor of interest and 0.3 µl lipofectamine 2000 (Thermo Fisher Scientific, Darmstadt, Germany) per well were used and transfection took place according to the manual of lipofectamine 2000. […] The empty vector DNA (mock) was transfected as negative control[14],[41].
Cells were loaded using the calcium-sensitive fluorescent dye Fluo-4-AM (Abcam, Cambridge, Great Britain) in the presence of 2.5 mM probenecid (Sigma-Aldrich, Steinheim, Germany) the day after transfection[13],[41]. 1 h after loading, cells were washed with C1 buffer using a BioTek Cell Washer, incubated in the dark for half an hour and washed again. For automated agonist application and measurement of fluorescence changes, a FLIPR^TETRA device (Molecular Devices, San José, United States) was used. Viability of cells was tested by application of 100 nM Somatostatin 14 (Bachem, Bubendorf, Switzerland)[42].
Measured data were negative control corrected by subtracting the signal of the mock-transfected cells and exported to Microsoft Excel using the FLIPR software ScreenWorks 4.2. In Microsoft Excel software, standardization of maximum fluorescence intensities to the basal fluorescence and normalization to the buffer-only control was done to calculate the relative fluorescence changes (ΔF/F).
Initial screening experiments performed in duplicate wells were confirmed by at least one replication and representative traces were selected for display. All dose-response relationships were determined by three independent experiments (biological replicates) performed in duplicates (technical replicates). Threshold concentrations, defined as lowest substance concentrations leading to statistically significant elevated fluorescence changes in receptor-transfected cells compared with empty vector-transfected cells, were determined using SigmaPlot with Student’s t-test to evaluate statistical significance (p < 0.01).

C[C@H](CCC(=O)NCCS(=O)(=O)O)[C@H]1CC[C@H]2[C@@H]3[C@H](O)C[C@@H]4C[C@H](O)CC[C@]4(C)[C@H]3C[C@H](O)[C@]12C [Taurocholic Acid, taurocholic acid]
Efficacy = maximal amplitude (ΔF/F) (TAS2R1, bile acids, mean): 0.09987 | Efficacy (maximal amplitude ΔF/F), individual data points (TAS2R1, bile acids, single replicates, listed as TCA): 0.08896 and 0.09306 and 0.1176 | RLU (Time 0 s (second time grid)): 0 RLU | RLU (Time 2 s): 7.952 RLU | RLU (Time 4 s): 20.145 RLU | RLU (Time 6 s): -3.167 RLU | RLU (Time 8 s): -1.092 RLU | RLU (Time 12 s): 4.801 RLU | RLU (Time 14 s): 10.0652 RLU | RLU (Time 16 s): -4.025 RLU | RLU (Time 18 s): 30.6672 RLU | RLU (Time 18.781 s): -8.288 RLU | RLU (Time 20.781 s): 38.1129 RLU | RLU (Time 22.781 s): 36.5466 RLU | RLU (Time 24.781 s): 100.781 RLU | RLU (Time 26.781 s): 94.321 RLU | RLU (Time 28.781 s): 128.096 RLU | RLU (Time 30.781 s): 168.752 RLU | RLU (Time 32.781 s): 222.063 RLU | RLU (Time 34.781 s): 248.838 RLU | RLU (Time 36.781 s): 287.098 RLU | RLU (Time 38.781 s): 303.962 RLU | RLU (Time 40.781 s): 295.88 RLU | RLU (Time 42.781 s): 354.401 RLU | RLU (Time 44.781 s): 378.941 RLU | RLU (Time 46.781 s): 349.497 RLU | RLU (Time 48.781 s): 364.135 RLU | RLU (Time 50.781 s): 379.282 RLU | RLU (Time 52.781 s): 390.659 RLU | RLU (Time 54.781 s): 392.471 RLU | RLU (Time 56.781 s): 396.221 RLU | RLU (Time 58.781 s): 410.391 RLU | RLU (Time 60.781 s): 390.107 RLU | RLU (Time 62.781 s): 396.638 RLU | RLU (Time 64.781 s): 407.599 RLU | RLU (Time 66.781 s): 435.147 RLU | RLU (Time 68.781 s): 406.802 RLU | RLU (Time 70.781 s): 400.242 RLU | RLU (Time 72.781 s): 418.773 RLU | RLU (Time 74.781 s): 413.176 RLU | RLU (Time 76.781 s): 422.764 RLU | RLU (Time 78.781 s): 402.418 RLU | RLU (Time 80.781 s): 440.793 RLU | RLU (Time 82.781 s): 428.932 RLU | RLU (Time 84.781 s): 402.626 RLU | RLU (Time 86.781 s): 438.62 RLU | RLU (Time 88.781 s): 435.97 RLU | RLU (Time 90.781 s): 417.798 RLU | RLU (Time 92.781 s): 396.047 RLU | RLU (Time 94.781 s): 416.808 RLU | RLU (Time 96.781 s): 401 RLU | RLU (Time 98.781 s): 382.662 RLU | RLU (Time 100.781 s): 386.609 RLU | RLU (Time 102.781 s): 391.574 RLU | RLU (Time 104.781 s): 343.693 RLU | RLU (Time 106.781 s): 334.229 RLU | RLU (Time 108.781 s): 318.822 RLU | RLU (Time 110.781 s): 359.901 RLU | RLU (Time 112.781 s): 338.629 RLU | RLU (Time 114.781 s): 327.9 RLU | RLU (Time 116.781 s): 308.179 RLU | RLU (Time 118.781 s): 311.101 RLU | RLU (Time 120.781 s): 314.431 RLU | RLU (Time 122.781 s): 288.825 RLU | RLU (Time 124.781 s): 292.111 RLU | RLU (Time 126.781 s): 280.428 RLU | RLU (Time 128.781 s): 264.252 RLU | RLU (Time 130.781 s): 247.5 RLU | RLU (Time 132.781 s): 279.196 RLU | RLU (Time 134.781 s): 263.266 RLU | RLU (Time 136.781 s): 260.122 RLU | RLU (Time 137.547 s): 257.068 RLU | RLU (Time 143.547 s): 228.429 RLU | RLU (Time 149.547 s): 221.043 RLU | RLU (Time 155.547 s): 204.711 RLU | RLU (Time 161.547 s): 175.173 RLU | RLU (Time 167.547 s): 178.916 RLU | RLU (Time 173.547 s): 141.583 RLU | RLU (Time 179.547 s): 150.852 RLU | RLU (Time 185.547 s): 123.705 RLU | RLU (Time 191.547 s): 70.5412 RLU | RLU (Time 197.547 s): 46.3148 RLU | RLU (Time 203.547 s): 75.6277 RLU | RLU (Time 209.547 s): 55.0459 RLU | RLU (Time 215.547 s): 35.7219 RLU | RLU (Time 221.547 s): 50.9362 RLU | RLU (Time 227.547 s): 33.794 RLU | RLU (Time 233.547 s): 65.6166 RLU | RLU (Time 239.547 s): 27.332 RLU | RLU (Time 245.547 s): 17.8718 RLU | RLU (Time 293.547 s): -10.6071 RLU | RLU (Time 299.547 s): -16.6248 RLU | RLU (calcium trace, sheet TAS2R1, Time 305.547 s): -3.144 RLU | RLU (calcium trace, sheet TAS2R1, Time 311.547 s): 2.9951 RLU | RLU (calcium trace, sheet TAS2R1, Time 317.547 s): -15.9144 RLU | RLU (calcium trace, sheet TAS2R1, Time 323.547 s): -10.1142 RLU | RLU (calcium trace, sheet TAS2R1, Time 329.547 s): 11.6208 RLU | RLU (calcium trace, sheet TAS2R1, Time 335.547 s): 11.3706 RLU | RLU (calcium trace, sheet TAS2R1, Time 341.547 s): 7.052 RLU | RLU (calcium trace, sheet TAS2R1, Time 347.547 s): 31.851 RLU | RLU (calcium trace, sheet TAS2R1, Time 353.547 s): 3.282 RLU | RLU (calcium trace, sheet TAS2R1, Time 359.547 s): 34.6741 RLU | Δ F/F (conc. 0,01 mM, TAS2R1): 0.007126 | Δ F/F (conc. 0,1 mM, TAS2R1): 0.04642 | Δ F/F (conc. 0,03 mM, TAS2R1): 0.01897 | Δ F/F (conc. 0,3 mM, TAS2R1): 0.09987 | Δ F/F (conc. 0,001 mM, TAS2R1): 0.004203 | Δ F/F (conc. 0,003 mM, TAS2R1): 0.00592 | Activation threshold concentration TAS2R1 (lowest concentration with significantly increased fluorescence vs empty vector (p < 0.01)): 100 µM and 100.00 µM
